Experimental data as given in patent US20230015647A1, “INHIBITORS OF HISTONE DEMETHYLASES (PFI-63 AND PFI-90) FOR THE TREATMENT OF CANCER AND FOR THE INHIBITION OF HISTONE DEMETHYLASE IN CELLS” (The United States of America,as represented by the …, priority 2019, published 2023).
Entries after “also recorded” stand apart in the source; their conditions may differ. Where two headings read alike, the source gives them in different places.

Assays:
[1] = system: rhabdomyosarcoma cells (i.e. RH4 and RH30 cells); assay: Cell confluence / cell number, rhabdomyosarcoma cells taken together; assay type: cell-based
Protocol: Among the 64 compounds identified above, 33 compounds of unknown mechanism of action were identified.
(§1) A cell confluence assay was performed to further assess the cytotoxicity of PFI-63 in RH4 and RH30 rhabdomyosarcoma cells. Confluence data was collected via photographic images of cells treated with PFI-63 at the following time points: 24 hours, 48 hours, 72 hours, 96 hours and 120 hours. Exemplary dose response curves at 72 hours are presented as FIGS. 10 and 11 in RH4 and RH30 cells, respectively.
as §1, with “to” for “to further”, “PFI-90” for “PFI-63”, “32” for “10”, “33” for “11”

[2] = system: OSA-CL osteosarcoma cells; assay: Cell confluence assay in OSA-CL osteosarcoma cells; assay type: cell-based
Protocol: as §1, with “OSA-CL osteosarcoma” for “RH4 and RH30 rhabdomyosarcoma”, “59” for “10”, “60 for PFI-63” for “11 in RH4”, “PFI-90” for “RH30 cells,”

[3] = system: TC-32 Ewing's sarcoma cells; assay: Cell confluence assay in TC-32 Ewing's sarcoma cells; assay type: cell-based; conditions: Homo sapiens, TC-32 cells
Protocol: as §1, with “OSA-CL osteosarcoma” for “RH4 and RH30 rhabdomyosarcoma”, “59” for “10”, “60 for PFI-63” for “11 in RH4”, “PFI-90” for “RH30 cells,”
A similar assay was performed to assess the cytotoxicity of PFI-63 and PFI-90 in TC-32 Ewing's sarcoma cells. Exemplary dose response curves at 72 hours are presented as FIGS. 61 and 62 for PFI-63 and PFI-90 respectively.

RH4 cells [4] = assay: Gene set enrichment analysis (GSEA) of RNASeq gene expression; assay type: cell-based, human
Protocol: Gene set enrichment analyses (GSEA) were performed according to methods known in the art to evaluate […] in cells treated with PFI-63 as compared to control cells. Briefly, gene expression in RH4 cells treated with PFI-63 was assessed by RNASeq, and the results were statistically compared with various pre-existing gene sets. […] The results also indicate that RH4 cells treated with PFI-63 experience upregulation of targets associated with myogenic differentiation and apoptosis (see FIGS. 18 and 19).
GSEA assays like those performed in Example 3 above, were also performed to assess PFI-90. The results for PFI-90 were similar to those obtained for PFI-63. […] The results also indicate that cells treated with PFI-90 experience upregulation of targets associated with myogenic differentiation and apoptosis (see FIGS. 39-40).

RH4 cells [5] = assay: Western blot (MYOG, cleaved PARP, PAX3-FOXO1); assay type: cell-based, human
Protocol: The GSEA results were supported by analysis via Western blot. […] This example confirms that PFI-63 disrupts PAX3-FOXO1 super enhancer circuitry. PFI-63 is also associated with upregulation of targets associated with myogenic differentiation and apoptosis.
In RH4 cells treated with PFI-90 at 3 μM, an increase in cleaved PARP (a marker for apoptosis) is observed at 24 hours (FIG. 48). This coincides with a decrease in PAX3-FOXO1 which is also observed at 24 hours (FIG. 49).

RH4 cells [6] = assay: Caspase 3 apoptosis assay in RH4 cells; assay type: cell-based, human
Text: (§2) The impact of PFI-63 and PFI-90 on apoptosis in rhabdomyosarcoma cells was investigated by assaying caspase 3 levels in the cells, and by annexin V staining.

RH4 cells [7] = assay: Annexin V staining; assay type: cell-based, human; conditions: relative to DMSO control
Text: as §2

[8] = 72 hour time point, read-out: IC50
[9] = approximate, read-out: IC50 (toxic to osteosarcoma cells)
[10] = approximate, read-out: IC50 (toxic to Ewing's sarcoma cells)

SMILES	IC50 ([1]; FIGS. 8-9 (cell number by confluency, RH4, RH30, RH30.19luc), read-out: IC50) [µM]	IC50 ([1]; RH4 and RH30 cells, approximate, read-out: IC50 (toxic to rhabdomyosarcoma cells)) [µM]	IC50 [2, 8] [µM]	IC50 [2, 9] [µM]	IC50 [3, 8] [µM]	IC50 [3, 10] [µM]	GSEA: genes that are induced upon KDM3B suppression (RH4 cells [4])	GSEA: targets associated with apoptosis (RH4 cells [4])	GSEA: targets associated with myogenic differentiation (RH4 cells [4])	GSEA: targets of the PAX3-FOXO1 fusion transcription factor (RH4 cells [4])	GSEA: targets that are upregulated by GSK-J4 (RH4 cells [4])	GSEA: targets that are upregulated by JIB-04 (RH4 cells [4])	MYOG (Western blot) (RH4 cells [5])	cleaved PARP (Western blot) (RH4 cells [5])	caspase 3 (RH4 cells [6])	cell death by annexin V staining (RH4 cells [7])	cytotoxicity compared with PFI-63 ([1]; rhabdomyosarcoma cells (RH4, RH30))	PAX3-FOXO1 (Western blot) (RH4 cells [5]; 3 μM, 24 hours)	cleaved PARP (Western blot) (RH4 cells [5]; 3 μM, 24 hours)
Cc1cc(C)cc(C(=O)NNC(=O)c2ccccn2)c1 [PFI-63]	2 to 6	3 to 5	7.57	~7.5	1.88	~2	upregulated	upregulation	upregulation	downregulated	upregulated; also recorded: upregulation	upregulated; also recorded: upregulation	increase	apoptosis; also recorded: increases	increased caspase 3	increase in cell death	–	–	–
O=C(NNc1ccccn1)c1ccccn1 [PFI-90]	–	–	1.9	~2	1.11	~1	upregulated	upregulation	upregulation	downregulated	–	–	–	–	increased caspase 3	increase in cell death	more cytotoxic to rhabdomyosarcoma cells than PFI-63	decreases	increases
